According to publication PMC8219695 (Nature Communications, 2021):
Several values for one entry are separate records, joined by “and”; a condition that tells them apart may be missing. Equal values may be shown once.

How the values were obtained:
mDOR = target: T1, mDOR (Mus musculus, UniProt P32300); assay: CAMYEL BRET antagonism assay at mDOR (inhibition of DPDPE); type: cell-based; conditions: for Antagonist activity at the mDOR (raw signal): individual replicates, Supplementary Figure 9B source data
T1 construct: expressed in transfected cells

rKOR = target: T2, rKOR (Rattus norvegicus, UniProt P34975); assay: CAMYEL BRET antagonism assay at rKOR (inhibition of U-50,488); type: cell-based; conditions: inhibition of reference agonist U50,488 (EC80)
T2 construct: expressed in transfected cells

mMOR = target: T3, mMOR (Mus musculus, UniProt P42866); assay: BRET-based Nb33 recruitment assay at mMOR; type: cell-based; conditions: for Nb33 BRET assay at mMOR, response: single replicates, source data Fig 7a; for Emax mMOR: Nb33 BRET; for Emax mMOR / Emax: relative to DAMGO; for Emax: read-out: Emax mMOR, Nb33 BRET
T3 construct: signal peptide (heterologous, not specified) (N); expressed in transfected cells; pcDNA3.1(+) construct made in house

hMOR = target: T4, hMOR (Homo sapiens, UniProt P35372); assay: cell-based; conditions: read-out: Emax hMOR
T4 construct: expressed in transfected cells; plasmid a gift from Dr. Nevin Lambert

C57BL/6 mice = assay: Tail-flick dose-response in C57BL/6 mice; type: in vivo, mouse; conditions: for ED50: Mus musculus, 0.25 h, read-out: ED50 (95% CI) tail-flick, n = 10; for mouse tail-flick assay (%MPE): 15 minute time point, individual animals
Method: CD1 mice (n = 10), at peak analgesic time point. […] Dose–response curves of 22 (s.c.), in the tail-flick assay was evaluated 15 min post drug administration in WT, C57 mice (n = 8) and MOR KO mice (n = 5). Each point represents mean ± SEM.
(§1) For analgesic dose–response experiments, male CD1 mice (20–32 g), 6–8 weeks were obtained from Charles River Laboratories and male C57BL/6 mice (22–30 g), 8–15 weeks were obtained from Jackson Lab (Bar Harbor, ME) and housed 5 mice per cage in a vivarium following an IACUC-approved protocol. For male C57BL/6 mice temperature was kept constant at 22 ± 2 °C, and relative humidity was maintained at 50 ± 5%. For male CD1 mice (20–32 g) the temperature was in the range of 20–26 °C and relative humidity maintained within the range of 30–70%. Mice were given access to food and tap water ad libitum. All mice used throughout the manuscript were opioid naïve. All mice were maintained on a 12 h light/dark cycle with Purina rodent chow and water available ad libitum and housed in groups of five until testing.
Tail-flick antinociception was determined using the radiant heat tail-flick technique using an Ugo Basile model 37360 instrument as previously described[95],[96]. The intensity was set to achieve a baseline between 2 and 3 s. Baseline latencies were determined before experimental treatments for all mice. Tail-flick antinociception was assessed as an increase in baseline latency, with a maximal 15 s latency to minimize damage to the tail. Data were analyzed as percent maximal effect, % MPE, and was calculated according to the formula: % MPE = [(observed latency – baseline latency)/(maximal latency – baseline latency)] × 100. Compounds were injected s.c. and antinociception was assessed at the peak effect. Mice were tested for analgesia with cumulative subcutaneous doses of the drug until the mouse can withstand the maximal latency. Once the mouse reached the maximal latency, the mouse was no longer given higher doses. […] In vivo experiments were evaluated using GraphPad Prism 8, San Diego, CA as described above.
96-well plate (no. 60050; Perkin Elmer; Waltham, MA, USA). At time zero, the luciferase substrate coelenterazine H (5 μM) was added to each well. Ligands were added after 5 min, then BRET signal was measured 10 min later. BRET measurements were performed using a PHERAstar FS plate reader (BMG Labtech, Cary, NC, USA). The BRET signal was calculated as the ratio of the light emitted by the mVenus […]
Dose–response curves were fit using a three-parameter logistic equation in GraphPad Prism 8 (Graphpad Software, La Jolla, CA, USA).
All experiments were repeated in at least three independent trials each with triplicate determinations.
as §1, with “dose-response” for “dose–response”, “g),6-8” for “g), 6–8”, “20-26” for “20–26”, “30-70%.” for “30–70%.”
For analgesic testing in knockout animals, wild-type, male C57BL/6 mice (22–33 g), 10-12 weeks were purchased from the Jackson Lab (Bar Harbor, ME). These mice were kept at a constant temperature of 22 ± 2 °C, and relative humidity was maintained at 40-50%. Exon-1/Exon-11 MOR-1 KO mice on a C57 background were bred in the Pintar laboratory at Rutgers University. All mice were maintained on a 12- […]

[1] = sc, s.c., 15 min time point, C57BL/6 mice

T3 sequence (P42866 whole entry): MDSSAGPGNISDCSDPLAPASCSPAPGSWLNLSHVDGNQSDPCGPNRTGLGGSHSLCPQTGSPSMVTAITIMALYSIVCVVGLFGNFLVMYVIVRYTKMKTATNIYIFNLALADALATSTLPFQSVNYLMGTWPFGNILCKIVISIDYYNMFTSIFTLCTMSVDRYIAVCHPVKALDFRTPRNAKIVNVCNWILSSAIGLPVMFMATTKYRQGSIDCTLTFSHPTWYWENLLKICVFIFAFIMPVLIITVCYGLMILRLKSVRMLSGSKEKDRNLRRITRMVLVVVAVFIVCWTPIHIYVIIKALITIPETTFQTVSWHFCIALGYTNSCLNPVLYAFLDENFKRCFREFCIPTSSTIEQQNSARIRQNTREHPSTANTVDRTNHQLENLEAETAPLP
T1 sequence (P32300 whole entry): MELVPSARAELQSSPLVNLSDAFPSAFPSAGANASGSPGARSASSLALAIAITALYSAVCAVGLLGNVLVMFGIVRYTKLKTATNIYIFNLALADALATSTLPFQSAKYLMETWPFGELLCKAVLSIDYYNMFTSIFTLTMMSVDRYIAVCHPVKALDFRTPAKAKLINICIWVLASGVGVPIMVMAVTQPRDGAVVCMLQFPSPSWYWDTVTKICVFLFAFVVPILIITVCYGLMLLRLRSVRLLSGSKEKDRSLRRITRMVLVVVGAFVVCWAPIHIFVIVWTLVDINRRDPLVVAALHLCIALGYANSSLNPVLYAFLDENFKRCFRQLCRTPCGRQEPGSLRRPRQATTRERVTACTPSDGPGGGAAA
T4 sequence (P35372 whole entry): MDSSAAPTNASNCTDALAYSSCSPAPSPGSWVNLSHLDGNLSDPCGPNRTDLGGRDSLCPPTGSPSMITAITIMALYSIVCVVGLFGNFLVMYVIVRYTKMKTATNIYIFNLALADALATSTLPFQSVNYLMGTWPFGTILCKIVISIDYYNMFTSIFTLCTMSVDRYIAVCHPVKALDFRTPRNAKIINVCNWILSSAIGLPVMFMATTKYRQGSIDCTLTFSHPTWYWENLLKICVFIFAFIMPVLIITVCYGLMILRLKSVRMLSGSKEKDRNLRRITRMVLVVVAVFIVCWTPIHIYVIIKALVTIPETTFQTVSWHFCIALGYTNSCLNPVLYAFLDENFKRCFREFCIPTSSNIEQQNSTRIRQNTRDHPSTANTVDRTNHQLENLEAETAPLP
T2 sequence (P34975 whole entry): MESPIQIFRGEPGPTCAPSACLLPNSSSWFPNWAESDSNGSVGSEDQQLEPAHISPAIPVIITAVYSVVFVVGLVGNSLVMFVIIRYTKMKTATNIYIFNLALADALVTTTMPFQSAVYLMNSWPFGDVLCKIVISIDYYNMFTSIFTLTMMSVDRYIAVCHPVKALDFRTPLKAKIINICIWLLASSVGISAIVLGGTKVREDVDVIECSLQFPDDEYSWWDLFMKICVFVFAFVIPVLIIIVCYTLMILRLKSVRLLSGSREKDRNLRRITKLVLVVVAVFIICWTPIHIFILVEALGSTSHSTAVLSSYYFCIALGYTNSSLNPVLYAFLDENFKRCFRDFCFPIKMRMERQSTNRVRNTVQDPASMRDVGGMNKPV

CC[C@@H]1CN2CC[C@@]3(O)C(=Nc4cc(Br)cc(OC)c43)[C@@H]2C[C@@H]1/C(=C\OC)C(=O)OC [11-Br-7OH (24), 11-Br-7OH]
Antagonist activity at the mDOR (raw signal) (mDOR; Log[drug] (M) -5, against EC80 DPDPE): 0.06399 and 0.06291 and 0.07141 and -0.0292 and -0.02688 and -0.02364 and 0.0237 and 0.00593 and 0.00355
Antagonist activity at the mDOR (raw signal) (mDOR; Log[drug] (M) -6, against EC80 DPDPE): 0.1505 and 0.1501 and 0.1583 and 0.09131 and 0.07128 and 0.07775 and 0.02237 and 0.03499 and 0.03942
Antagonist activity at the mDOR (raw signal) (mDOR; Log[drug] (M) -7, against EC80 DPDPE): 0.2144 and 0.2068 and 0.2165 and 0.1245 and 0.1236 and 0.1249 and 0.06242 and 0.05459 and 0.06232
Antagonist activity at the mDOR (raw signal) (mDOR; Log[drug] (M) -8, against EC80 DPDPE): 0.2065 and 0.2182 and 0.2145 and 0.1188 and 0.1346 and 0.1274 and 0.05577 and 0.0581 and 0.03338
Antagonist activity at the mDOR (raw signal) (mDOR; Log[drug] (M) -9, against EC80 DPDPE): 0.2158 and 0.2138 and 0.2085 and 0.1371 and 0.1339 and 0.1253 and 0.04145 and 0.04861 and 0.04624
Antagonist activity at the mDOR (raw signal) (mDOR; Log[drug] (M) -10, against EC80 DPDPE): 0.2122 and 0.2205 and 0.2303 and 0.1255 and 0.1229 and 0.131 and 0.04756 and 0.04362 and 0.03388
Antagonist activity at the mDOR (raw signal) (mDOR; Log[drug] (M) -11, against EC80 DPDPE): 0.208 and 0.2144 and 0.211 and 0.1321 and 0.1264 and 0.1313 and 0.05075 and 0.03733 and 0.04896
antagonism at mDOR (mDOR; inhibition of reference agonist DPDPE (EC80)): full inhibition
antagonism at rKOR (rKOR): full inhibition

CC[C@@H]1CN2CC[C@@]3(O)C(=Nc4cccc(OC)c43)[C@@H]2C[C@@H]1/C(=C\OC)C(=O)OC [7OH, 7-Hydroxymitragynine, reference compound]
EC50 (mMOR): 15 nM
Nb33 BRET assay at mMOR, response (mMOR; Log[drug] (M) -5, listed as 7-OH Mitragynine): 31.8558 and 13.6622 and 18.9084 and 19.9525 and 1.3915 and 5.568 and 5.853 and 2.0473 and 9.468
Nb33 BRET assay at mMOR, response (mMOR; Log[drug] (M) -6, listed as 7-OH Mitragynine): 11.2448 and 12.7863 and 8.673 and 7.158 and -2.301 and 5.3956 and -5.256 and 15.8192 and 11.2218
Nb33 BRET assay at mMOR, response (mMOR; Log[drug] (M) -7, listed as 7-OH Mitragynine): 34.9577 and 9.119 and 11.9292 and 16.603 and 7.256 and -0.02541 and 7.483 and 5.463 and 3.637
Nb33 BRET assay at mMOR, response (mMOR; Log[drug] (M) -8, listed as 7-OH Mitragynine): 18.0513 and 18.0293 and 14.3718 and -0.3281 and -6.115 and -12.1072 and 6.0021 and 5.2851 and -7.797
Nb33 BRET assay at mMOR, response (mMOR; Log[drug] (M) -9, listed as 7-OH Mitragynine): -7.335 and -6.503 and -1.285 and -14.3312 and -4.26 and -7.41 and 7.337 and -0.23 and -1.333
Nb33 BRET assay at mMOR, response (mMOR; Log[drug] (M) -10, listed as 7-OH Mitragynine): -7.162 and 6.7364 and 17.2382 and -2.279 and -1.22 and 15.6435 and -10.3312 and 4.394 and -8.638
Nb33 BRET assay at mMOR, response (mMOR; Log[drug] (M) -11, listed as 7-OH Mitragynine): 8.105 and -10.4588 and 2.354 and -4.559 and 5.739 and -1.18 and -4.753 and 4.633 and 0.1195
Emax mMOR (mMOR): ~ 20%
Emax (mMOR): ~14%
Emax (hMOR): ~22%
ED50 (C57BL/6 mice; [1]): 0.25 mg/kg
mouse tail-flick assay (%MPE) (C57BL/6 mice; dose 0.1, s.c., listed as 7-OH mitragynine): 5.405 %MPE and 8.511 %MPE and 8.661 %MPE and 16.5289 %MPE and 34.8214 %MPE and 6.87 %MPE and 7.627 %MPE and -5.556 %MPE and 0.7299 %MPE and 3.6036 %MPE
mouse tail-flick assay (%MPE) (C57BL/6 mice; dose 0.3, s.c., listed as 7-OH mitragynine): 36.036 %MPE and 12.0567 %MPE and 36.2205 %MPE and 44.6281 %MPE and 52.6786 %MPE and 100 %MPE (3×) and 73.7288 %MPE and 72.2628 %MPE
mouse tail-flick assay (%MPE) (C57BL/6 mice; dose 1, s.c.): 100 %MPE
analgesic efficacy (Emax) (C57BL/6 mice; s.c., 15 min time point, C57BL/6 mice, 7OH normalized to 100%): 100%

CC[C@@H]1CN2CC[C@@]3(O)C(=Nc4cc(F)cc(OC)c43)[C@@H]2C[C@@H]1/C(=C\OC)C(=O)OC [11-F-7OH (22), 11-Fluoro-7-hydroxymitragynine]
Nb33 BRET assay at mMOR, response (mMOR; Log[drug] (M) -5, listed as C11-F-7OH (22)): 6.583 and -1.77 and -4.813 and -2.626 and -1.32 and 4.487 and 18.3783 and 26.5383 and 5.598 and 5.585 and 0.2094 and 5.293
Nb33 BRET assay at mMOR, response (mMOR; Log[drug] (M) -6, listed as C11-F-7OH (22)): 0.6338 and 14.8405 and 14.4384 and 1.573 and -3.3849 and 2.324 and 3.469 and 13.567 and 11.5483 and 6.799 and 5.845 and 11.4048
Nb33 BRET assay at mMOR, response (mMOR; Log[drug] (M) -7, listed as C11-F-7OH (22)): 2.525 and -4.237 and 5.069 and -13.128 and 0.1228 and -1.54 and 7.378 and 4.077 and 0.2648 and 1.54 and -4.687 and 9.074
Nb33 BRET assay at mMOR, response (mMOR; Log[drug] (M) -8, listed as C11-F-7OH (22)): 0.2904 and 1.436 and 1.352 and 1.678 and 1.793 and -7.9215 and -6.277 and -6.486 and -0.06826 and 14.2168 and -0.06924 and 8.399
Nb33 BRET assay at mMOR, response (mMOR; Log[drug] (M) -9, listed as C11-F-7OH (22)): -2.727 and 5.58 and 0.2255 and 4.116 and 4.119 and -5.256 and -3.689 and -9.68 and 0.5281 and 3.825 and 2.847 and -6.097
Nb33 BRET assay at mMOR, response (mMOR; Log[drug] (M) -10, listed as C11-F-7OH (22)): 3.545 and 0.5186 and 8.52 and 1.379 and 2.542 and 3.339 and 3.8632 and -1.052 and 9.1269 and 14.9582 and 6.739 and 3.3642
Nb33 BRET assay at mMOR, response (mMOR; Log[drug] (M) -11, listed as C11-F-7OH (22)): 21.3407 and -2.769 and 15.6698 and -2.476 and 2.836 and -0.3605 and -4.304 and -16.5097 and 20.8133 and -2.923 and -1.5757 and 4.499
Emax mMOR (mMOR): near the detection limit of the assay
Emax (mMOR): < 10%
Emax (hMOR): < 10%
ED50 (C57BL/6 mice; [1]): 0.18 mg/kg
mouse tail-flick assay (%MPE) (C57BL/6 mice; dose 0.1, s.c.): 1.681 %MPE and 10.3175 %MPE and -0.885 %MPE and 20.8955 %MPE and 3.731 %MPE and 1.653 %MPE and 0.813 %MPE and 15.7895 %MPE and 6.383 %MPE and 0 %MPE
mouse tail-flick assay (%MPE) (C57BL/6 mice; dose 0.3, s.c.): 0.8403 %MPE and 3.1746 %MPE and -13.2743 %MPE and 18.6567 %MPE and 7.463 %MPE and 12.3967 %MPE and 9.7561 %MPE and 0 %MPE and 87.9433 %MPE and 12.2137 %MPE
mouse tail-flick assay (%MPE) (C57BL/6 mice; dose 1, s.c.): 68.0672 %MPE and 18.254 %MPE and 1.77 %MPE and 24.6269 %MPE and 3.731 %MPE and 5.785 %MPE and 8.943 %MPE and 18.0451 %MPE and 87.234 %MPE and 3.053 %MPE
mouse tail-flick assay (%MPE) (C57BL/6 mice; dose 3, s.c.): 18.4874 %MPE and 30.1587 %MPE and 45.1327 %MPE and 31.3433 %MPE and 5.97 %MPE and 7.438 %MPE and 17.8862 %MPE and 23.3083 %MPE and 30.4964 %MPE and 6.87 %MPE
mouse tail-flick assay (%MPE) (C57BL/6 mice; dose 10, s.c.): 6.723 %MPE and 21.4286 %MPE and -9.735 %MPE and 22.3881 %MPE and 14.9254 %MPE and 0 %MPE and 17.0732 %MPE and 28.5714 %MPE and 55.3192 %MPE and 12.9771 %MPE
analgesic efficacy (Emax) (C57BL/6 mice; mouse, in vivo, sc): 21%
